Assay results published in US20240239790A1, “7-Morpholino-1,6-Naphthyridin-5-yl Derivatives and Pharmaceutical Compositions Thereof Useful as DNA-PK Inhibitor” (adMare Therapeutics Society, priority 2021, published 2024).
pEC50, pIC50: −log10 of the molar value. Read-outs that look alike come from different tables or passages of the source.

Legend:
[1] = molecular target: T1, DNA-PK phosphorylation at Serine 2056 (Homo sapiens, UniProt P78527); test: Cellular Assay for Inhibition of DNA-PK Phosphorylation at Serine 2056 in FaDu cells (sandwich ELISA, neocarzinostatin); assay type: cell-based; settings: pSer2056 DNA-PK
T1 construct: FaDu cells were purchased from ATCC; host or cells: FaDu
Method in brief: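 pSer2056 and total DNA-PK were measured by sandwich ELISA in BCA-normalised FaDu lysates. Cells had 1 h compound exposure (0.3% DMSO), then 2 h with 1 μg/mL final neocarzinostatin. IC50 was fitted (variable slope) to % inhibition scaled against NCS-stimulated and DMSO-only controls.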

DNA-PK = molecular target: T2, DNA-PK (Homo sapiens, UniProt P78527); test: DNA-PK Assay for Biochemical Enzymatic Inhibition (ADP Glo Kinase assay); settings: DNA-PK enzyme
T2 construct: purchased Invitrogen PR9107A
Method in brief: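 Human DNA-PK (25 ng) preincubated 15 min with compounds (ten three-fold dilutions) in HEPES pH 7.5, MgCl2, KCl, calf thymus DNA buffer, then substrate 434.4 μM and ATP 64.4 μM (final) for 60 min at room temperature. ADP-Glo luminescence; percent inhibition fitted by four-parameter regression for IC50.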

[2] = Microsomal Stability Assay, mouse liver microsomes; assay type: in vitro ADME; settings: for microsomal CLint at 0.1 uM: male, CD-1, pH 7.4, mouse liver microsomes 0.1 mg/mL, 0.1 uM compound
Procedure: (§1) Samples were then mixed and centrifuged. Supernatants were used for HPLC-MS/MS analysis. […] Peak areas corresponding to the test compound were recorded.

[3] = Microsomal Stability Assay, human liver microsomes; assay type: in vitro ADME
Procedure: as §1

[4] = system: pDNA-PK induction in HCT116 tumour spheroids; test: Multicellular tumour spheroid + radiation, pDNA-PK (ser2056) inhibition, immunohistochemical endpoint, HCT116; assay type: cell-based; settings: Homo sapiens, 20 Gy, 20% O2
Method in brief: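 HCT116 spheroids (~0.5 mm) in MEM/10% FBS, 20% O2, 37° C., pre-incubated 1 h with compound (10 or 5 μM down to 3.5 nM), irradiated 20 Gy, then 2 h further with compound. Cryosections immunostained for pDNA-PK ser2056; EC50 is concentration halving radiation-induced pDNA-PK.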

[5] = Hepatocyte Stability Assay, human hepatocytes; assay type: in vitro ADME
Procedure: (§2) Cryopreserved mouse hepatocytes were obtained from a pool of 10 or more male CD-1 mice. Cryopreserved human hepatocytes were obtained from a pool of 10 or more donors of mixed gender. Final hepatocyte density was 0.7 million viable cells per mL and test compound concentration was 1 uM with a maximum of 0.01% DMSO. Cryopreserved hepatocytes were thawed, washed, and resuspended in Krebs-Heinslet buffer (pH 7.3). The reaction was initiated by adding the test compound into cell suspension and incubated for 0, […], 1, 1.5, and 2 h, respectively, at 37° C./5% C02. The reaction was stopped by adding acetonitrile into the incubation mixture. Samples were then mixed, transferred completely to another 96-well plate, and centrifuged. Supernatants were used for HPLC-MS/MS analysis. […] Peak areas corresponding to the test compound were recorded.

[6] = Hepatocyte Stability Assay, mouse hepatocytes; assay type: in vitro ADME
Procedure: as §2

[7] = neocarzinostatin 1 μg/mL, Table 1
[8] = HCT-116, 2 hours following radiation, Example 9 Study 2, read-out: Spheroid Cell line: HCT116 Immunohistochemical endpoint pDNA-PK inhibition EC50
[9] = HCT-116, Spheroid, Cell Line: HCT115 (so in the source), 2 hours following radiation, Example 7, read-out: EC50, Immunohistochemical endpoint, pDNA-PK inhibition
[10] = HCT-116, 2 h, spheroids, Example 8, read-out: Cell line: HCT116 Immunohistochemical endpoint pDNA-PK inhibition EC50
[11] = mouse liver microsomes, Example 11
[12] = human liver microsomes, Example 11

Row | pIC50 [1, 7] | pIC50 (DNA-PK; Table 1) | microsomal CLint at 0.1 uM [2] [µL/min/mg] | Microsomal Stability Mouse % rem. 60 min ([2]; mouse liver microsomes) | pEC50 [4, 8] | pEC50 [4, 9] | pEC50 [4, 10] | SMILES | further results
1 | 6.00 to 7.00 | > 9.30 | > 116 | E (% remaining = 0-25%) | – | – | – | CN(C)C(=O)COc1ccc(N[C@H]2CC[C@@H](Oc3nc(N4CCOCC4)cc4ncccc34)CC2)nc1 [Compound 55, N,N-dimethyl-2-((6-(((1s,4s)-4-((7-morpholino-1,6-naphthyridin-5-yl)oxy)cyclohexyl)amino)pyridin-3-yl)oxy)acetamide] | microsomal CLint at 0.1 uM ([3]; both sexes, pH 7.4, human liver microsomes 0.1 mg/mL, 0.1 uM compound): > 116 µL/min/mg; Microsomal Stability Human % rem. 60 min ([3]; human liver microsomes): F (% remaining = 25-50%)
2 | 6.00 to 7.00 | > 9.30 | > 116 | E (% remaining = 0-25%) | 6.00 to 6.30 | 6.00 to 6.30 | – | CON(C)C(=O)COc1cnc(N[C@H]2CC[C@@H](Oc3nc(N4CCOCC4)cc4ncccc34)CC2)nc1 [Compound 58, N-Methoxy-N-methyl-2-((2-(((1s,4s)-4-((7-morpholino-1,6-naphthyridin-5-yl)oxy)cyclohexyl)amino)pyrimidin-5-yl)oxy)acetamide] | –
3 | 4.52 to 5.00 | 8.00 to 9.00 | > 116 | E (% remaining = 0-25%) | 4.00 to 5.00 | 4.00 to 5.00 | 4.00 to 5.00 | NC(=O)c1cnc2cc(N3CCOCC3)nc(O[C@H]3CC[C@@H](n4ccnc4)CC3)c2c1 [Compound 166, 5-(((1s,4s)-4-(1H-imidazol-1-yl)cyclohexyl)oxy)-7-morpholino-1,6-naphthyridine-3-carboxamide] | –
4 | 6.00 to 7.00 | > 9.30 | – | – | 5.00 to 6.00 | – | – | O=C(COc1cnc(N[C@H]2CC[C@@H](Oc3nc(N4CCOCC4)cc4ncccc34)CC2)nc1)N1CC(F)C1 [Compound 76, 1-(3-Fluoroazetidin-1-yl)-2-((2-(((1s,4s)-4-((7-morpholino-1,6-naphthyridin-5-yl)oxy)cyclohexyl)amino)pyrimidin-5-yl)oxy)ethan-1-one] | hepatocyte CLint at 1 uM ([5]; both sexes, cryopreserved hepatocytes, pH 7.3, human hepatocytes 0.7 million cells per mL, 1 uM compound): < 8.2 µL/min/1e6 cells; Hepatocyte Stability Human % rem. 120 min ([5]; human hepatocytes, 120 min): G (% remaining = 50-75%); hepatocyte CLint at 1 uM ([6]; male, CD-1, cryopreserved hepatocytes, pH 7.3, mouse hepatocytes 0.7 million cells per mL, 1 uM compound): > 8.2 µL/min/1e6 cells; Hepatocyte Stability Mouse % rem. 120 min ([6]; mouse hepatocytes, 120 min): F (% remaining = 25-50%)
5 | > 7.00 | 8.00 to 9.00 | > 116 | E (% remaining = 0-25%) | 6.00 to 6.30 | 6.00 to 6.30 | – | CONC(=O)COc1cnc(N[C@H]2CC[C@@H](Oc3nc(N4CCOCC4)cc4ncccc34)CC2)nc1 [Compound 72, N-Methoxy-2-((2-(((1s,4s)-4-((7-morpholino-1,6-naphthyridin-5-yl)oxy)cyclohexyl)amino)pyrimidin-5-yl)oxy)acetamide] | –
6 | – | – | – | – | – | – | – | CN(C)C(=O)COc1cnc(N[C@H]2CC[C@@H](Oc3nc(N4CCOCC4)cc4ncc(NS(C)(=O)=O)cc34)CC2)nc1 [LFA012, 2-[2-[[4-[[3-(Methanesulfonamido)-7-morpholino-1,6-naphthyridin-5-yl]oxy]cyclohexyl]amino]pyrimidin-5-yl]oxy-N,N′-dimethyl-acetamide] | pIC50 ([1]; Table 2): 6.00 to 7.00; pIC50 (DNA-PK; Table 2): > 9.30; Microsomal Stability Mouse % rem. 60 min [2, 11]: H (% remaining = 75-100%); Microsomal Stability Mouse Clint [2, 11]: A (Clint < 116 uL/min/mg); Microsomal Stability Human % rem. 60 min [3, 12]: H (% remaining = 75-100%); Microsomal Stability Human Clint [3, 12]: A (Clint < 116 uL/min/mg)
7 | 6.00 to 7.00 | 8.00 to 9.00 | > 116 | E (% remaining = 0-25%) | 5.00 to 6.00 | 5.00 to 6.00 | 5.00 to 6.00 | NC(=O)N[C@H]1CC[C@@H](Oc2nc(N3CCOCC3)cc3ncccc23)CC1 [Compound 15, 1-((1s,4s)-4-((7-morpholino-1,6-naphthyridin-5-yl)oxy)cyclohexyl)urea] | –
8 | 4.52 to 5.00 | 8.00 to 9.00 | > 116 | E (% remaining = 0-25%) | 5.00 to 6.00 | 5.00 to 6.00 | 5.00 to 6.00 | Cn1cc([C@H]2CC[C@@H](Oc3nc(N4CCOCC4)cc4ncc(OCCO)cc34)CC2)cn1 [Compound 5, 2-((5-(((1s,4s)-4-(1-methyl-1H-pyrazol-4-yl)cyclohexyl)oxy)-7-morpholino-1,6-naphthyridin-3-yl)oxy)ethan-1-ol] | –
9 | 6.00 to 7.00 | 9.00 to 9.30 | > 116 | E (% remaining = 0-25%) | 6.00 to 6.30 | 6.00 to 6.30 | 6.00 to 6.30 | O=C(Nc1ccccc1)N[C@H]1CC[C@@H](Oc2nc(N3CCOCC3)cc3ncccc23)CC1 [Compound 150, 1-((1s,4s)-4-((7-Morpholino-1,6-naphthyridin-5-yl)oxy)cyclohexyl)-3-phenylurea] | –
10 | 6.00 to 7.00 | 8.00 to 9.00 | > 116 | E (% remaining = 0-25%) | 4.00 to 5.00 | 4.00 to 5.00 | 4.00 to 5.00 | CC(=O)NC(=O)c1cnc2cc(N3CCOCC3)nc(O[C@H]3CC[C@@H](n4ccnc4)CC3)c2c1 [Compound 167, 5-(((1s,4s)-4-(1H-imidazol-1-yl)cyclohexyl)oxy)-N-acetyl-7-morpholino-1,6-naphthyridine-3-carboxamide] | –
11 | 5.00 to 6.00 | 8.00 to 9.00 | > 116 | F (% remaining = 25-50%) | 5.00 to 6.00 | 5.00 to 6.00 | – | CN(C)C(=O)Cn1cccc1C(=O)N[C@H]1CC[C@@H](Oc2nc(N3CCOCC3)cc3ncccc23)CC1 [Compound 146, 1-(2-(dimethylamino)-2-oxoethyl)-N-((1s,4s)-4-((7-morpholino-1,6-naphthyridin-5-yl)oxy)cyclohexyl)-1H-pyrrole-2-carboxamide] | –
12 | 6.00 to 7.00 | 6.82 to 8.00 | > 116 | E (% remaining = 0-25%) | – | – | – | Cn1cc(-c2cnc3cc(N4CCOCC4)nc(O[C@H]4CC[C@@H](n5ccnc5)CC4)c3c2)cn1 [Compound 158, 4-(5-(((1s,4s)-4-(1H-imidazol-1-yl)cyclohexyl)oxy)-3-(1-methyl-1H-pyrazol-4-yl)-1,6-naphthyridin-7-yl)morpholine] | –
13 | 5.00 to 6.00 | 8.00 to 9.00 | < 116 | G (% remaining = 50-75%) | 5.00 to 6.00 | 5.00 to 6.00 | 5.00 to 6.00 | CONC(=O)c1cnc2cc(N3CCOCC3)nc(O[C@H]3CC[C@@H](n4ccnc4)CC3)c2c1 [Compound 171, 5-(((1s,4s)-4-(1H-imidazol-1-yl)cyclohexyl)oxy)-N-methoxy-7-morpholino-1,6-naphthyridine-3-carboxamide] | –
14 | > 7.00 | > 9.30 | > 116 | F (% remaining = 25-50%) | 6.30 to 8.00 | 6.30 to 8.00 | – | NC(=O)COc1cnc(N[C@H]2CC[C@@H](Oc3nc(N4CCOCC4)cc4ncccc34)CC2)nc1 [Compound 60, 2-((2-(((1s,4s)-4-((7-Morpholino-1,6-naphthyridin-5-yl)oxy)cyclohexyl)amino)pyrimidin-5-yl)oxy)acetamide] | –
